As a reminder, the MIC is the smallest concentration in the dilution series that meets the test's criterion for growth inhibition.

This is an account of results in PMC4335513 (Critical Care, 2015).

Converted amounts (≈) assume the structure as drawn. Where two headings read alike, the source gives them in different places. *1 amine or outer side, *2 acyl side, *3 side chain or, on linkers, in order; H or OH if unused. Where a SMILES comes first, the peptide text is derived from it. Bridges are numbered along the chain shown (N, C = ends). [ ]: non-standard residue; d: D form. The star is where a group is joined. pTerphenylCO(4''-OnC5H11) = CCCCCOc1ccc(-c2ccc(-c3ccc(C(=O)*)cc3)cc2)cc1; Orn(4R-OH,5R-OH) = O=C([C@H](C[C@@H](O)[C@@H](O)N[*:3])N[*:1])[*:2]; hTyr(3S-OH,4S-OH) = N[C@H](C(=O)O)[C@H](O)[C@@H](O)c1ccc(O)cc1; Pro(3S-OH,4S-Me) = C[C@H]1CN[C@H](C(=O)O)[C@H]1O; Hyp = O=C(O)[C@@H]1C[C@@H](O)CN1

The nature of data set [1]: Plasma pharmacokinetics in critically ill ICU patients (DALI study), noncompartmental analysis. The format is in vivo, human. The protocol: The Defining Antibiotic Levels in Intensive care unit patients (DALI) study was a prospective, multicenter PK point-prevalence study. The protocol has been published in detail previously, and the participating investigators are listed in Additional file 1).
The choice of antifungal agent and dosing was at the discretion of the treating clinician. Each patient had three blood samples taken: blood sample A was a peak concentration taken 30 minutes after completion of intravenous infusion; blood sample B was a mid-dose blood sample taken 50% of the way through a dosing interval; and blood sample C was a pre-dose concentration taken at the end of a dosing interval (within 30 minutes of the next dose).
The stationary phase was a Kinetex C8 (50 × 2.10 mm, 1.7 μm) UHPLC column (Phenomenex, Torrance, CA, USA).
For anidulafungin analysis, the supernatant was washed with dichloromethane to remove lipid-soluble components. […] The methods were validated for linearity, LLOQ, matrix effects, precision and accuracy, and stock stability by using the FDA criteria for bioanalysis.
Clearance (CL) was calculated by using the equation Dose/AUC0-∞.

Data set [2] is described as follows: Clinical outcome of therapy and mortality at 30 days in ICU patients. The format is in vivo, human. The conditions noted are these: for patients with positive clinical outcome: completion of treatment course without change or addition of antifungal therapy; for 30-day mortality: died by day 30; for patients with indeterminate clinical outcome: outcome of therapy could not be judged. How it is done: (§1) Data collection was performed by trained staff at each participating center and entered into a case report form. Various demographic and clinical data were collected, including age, gender, height, weight, admission diagnosis, presence of extracorporeal circuits (for example, renal replacement therapy), clinical outcome of infection, and mortality at 30 days. A positive clinical outcome of therapy was defined as completion of treatment course without change or addition of antifungal therapy and with no additional antifungals commenced within 48 hours of discontinuation of the therapy, and if the outcome of therapy could not be judged for any reason, it was recorded as indeterminate. Also, organ-function data (including renal function: serum creatinine concentration during studied dosing interval; 24-hour measured urinary creatinine clearance (CrCL) (where available), antibiotic dosing (dose and frequency, time of dosing and sampling, day of antibiotic therapy), and infection data (including known or presumed pathogen and pathogen MIC) were collected.

Another data set has as its system C. albicans. In words: Pathogen MIC reported for patient isolate. It counts as cell-based. Conditions: Candida albicans. How it is done:
as §1

For data set [3] the following is noted: human, in vivo; cited from earlier work.
On the set-up of data set [4]: AUC 0–24: unit not given beside the values. Conditions: ICU patients; mean (%CV); ref Liu et al. [25]; cited from earlier work. The source says:
Table 2 Comparison of exposures achieved in this study with other studies (mean (%CV)) | column: Anidulafungin / Liu et al. (ICU patients)

On the set-up of data set [5]: AUC 0–24: unit not given beside the values. Conditions: healthy volunteers; mean (%CV); ref Liu et al. [25]; cited from earlier work. The source says: Table 2 Comparison of exposures achieved in this study with other studies (mean (%CV)) | column: Anidulafungin / Liu et al. (healthy volunteers)
Details of data set [6]: AUC 0–24: unit not given beside the values. The conditions noted are these: general patients; mean (%CV); ref Wurthwein et al. [26]; cited from earlier work. The source says: Table 2 Comparison of exposures achieved in this study with other studies (mean (%CV)) | column: Caspofungin / Wurthwein et al. (general patients)
Details of data set [7]: AUC 0–24: unit not given beside the values. The conditions noted are these: healthy volunteers; mean (95% CI); ref Stone et al. [27]; cited from earlier work. The source says:
Table 2 Comparison of exposures achieved in this study with other studies (mean (%CV)) | column: Caspofungin / Stone et al. [27]^a (healthy volunteers)

The conditions of data set [8]: surgical ICU patients; ref Nguyen et al. [28]; cited from earlier work. The source says: However, variability was higher compared with healthy volunteers (Table 2). This may be attributed to underlying pathophysiological changes that occur in ICU patients. The observed anidulafungin variability in AUC0–24, Cmin, and Cmax was not as high as observed in the study by Liu et al., who recruited a larger cohort of surgical ICU patients but was higher than variability observed in healthy volunteers (Table 2). The PK parameter estimates were ...

As to `OC(Cn1cncn1)(Cn1cncn1)c1ccc(F)cc1F` [Fluconazole, fluconazole], in data set [1] (human, in vivo), the C max is given as 20 (14). The “AUC 0–24” value in data set [1] (human, in vivo, SD) is 359 (259). In [2], the “patients with positive clinical outcome” value is 27%, the 30-day mortality is recorded as 47% and the “patients with indeterminate clinical outcome” value amounted to 40%. In the data set with C. albicans, this compound gave a minimum inhibitory concentration (MIC) of 0.75 µg/mL (≈ 2.45 µM). In addition, in [3], the “AUC 0–24” value was 409 (336–482) and the C max is given as 25 (22–28).
On to `CCCCCOc1ccc(-c2ccc(-c3ccc(C(=O)N[C@H]4C[C@@H](O)[C@@H](O)NC(=O)[C@@H]5[C@@H](O)[C@@H](C)CN5C(=O)[C@H]([C@@H](C)O)NC(=O)[C@H]([C@H](O)[C@@H](O)c5ccc(O)cc5)NC(=O)[C@@H]5C[C@@H](O)CN5C(=O)[C@H]([C@@H](C)O)NC4=O)cc3)cc2)cc1` [Anidulafungin, anidulafungin] ({pTerphenylCO(4''-OnC5H11)}-[Orn(4R-OH,5R-OH)]T[Hyp][hTyr(3S-OH,4S-OH)]T[Pro(3S-OH,4S-Me)]; lactam 1-C), for which the “AUC 0–24” value in data set [1] (This study, ICU patients, anidulafungin 100 mg, plasma, UHPLC-MS/MS, linear trapezoidal, mean (%CV), n = 9) is 55 (28). For the same compound, the C max in data set [1] (This study, ICU patients, anidulafungin 100 mg, plasma, observed peak 30 min after end of iv infusion, mean (%CV), n = 9) is 3.9 (29). Also, in [1] (This study, ICU patients, anidulafungin 100 mg, plasma, observed pre-dose concentration, mean (%CV), n = 9), the C min is 1.8 (30). Besides, in data set [2], the “patients with positive clinical outcome” value was 67%, the 30-day mortality is recorded as 11% and the “patients with indeterminate clinical outcome” value came out at 33%. Moreover, in [4], the “AUC 0–24” value is recorded as 93.0 (41), the C max was 7.7 (56) and the C min is reported as 3.0 (44). In data set [5], the “AUC 0–24” value is 105.0 (22), the C max is on record as 7.0 (22) and the C min is listed as 3.1 (25).
For the compound `CC[C@H](C)C[C@H](C)CCCCCCCCC(=O)N[C@H]1C[C@@H](O)[C@@H](NCCN)NC(=O)[C@@H]2[C@@H](O)CCN2C(=O)[C@H]([C@H](O)CCN)NC(=O)[C@H]([C@H](O)[C@@H](O)c2ccc(O)cc2)NC(=O)[C@@H]2C[C@@H](O)CN2C(=O)[C@H]([C@@H](C)O)NC1=O` [Caspofungin, caspofungin], the “AUC 0–24” value in [1] (This study, ICU patients, caspofungin 70 mg (loading dose), 70% sampled on day 1, plasma, UHPLC-MS/MS, mean (%CV)) was 52.0 (53). Also, the C max in data set [1] (This study, ICU patients, caspofungin 70 mg (loading dose), plasma, observed peak, mean (%CV)) is on record as 3.9 (55). Also, the C min in data set [1] (This study, ICU patients, caspofungin 70 mg (loading dose), plasma, observed pre-dose, mean (%CV)) is given as 1.5 (57). Further, in [2], the “patients with positive clinical outcome” value was found to be 43%, the 30-day mortality turned out to be 29% and the “patients with indeterminate clinical outcome” value is given as 11%. Further, in data set [6], the “AUC 0–24” value is listed as 170.0 (34) and the C max is 13.8 (31). Further, in [7], the “AUC 0–24” value is on record as 97.0 (87–109), the C max is on record as 12.1 (11–13) and the C min was 1.4 (1.1–1.8). Further, the “Cmin (range observed)” value in [8] is 500 to 4100 ng/mL.
